The values below come from ChEMBL document CHEMBL2073793, “An in vitro evaluation of human cytochrome P450 3A4 and P-glycoprotein inhibition by garlic” (J Pharm Pharm Sci, 2001).

The data set addresses ATP-dependent translocase ABCB1 (Homo sapiens, UniProt P08183). The data set can be described thus: TP_TRANSPORTER: ATP hydrolysis GENTEST. Format: functional.

ATP-dependent translocase ABCB1, sequence (P08183 whole entry): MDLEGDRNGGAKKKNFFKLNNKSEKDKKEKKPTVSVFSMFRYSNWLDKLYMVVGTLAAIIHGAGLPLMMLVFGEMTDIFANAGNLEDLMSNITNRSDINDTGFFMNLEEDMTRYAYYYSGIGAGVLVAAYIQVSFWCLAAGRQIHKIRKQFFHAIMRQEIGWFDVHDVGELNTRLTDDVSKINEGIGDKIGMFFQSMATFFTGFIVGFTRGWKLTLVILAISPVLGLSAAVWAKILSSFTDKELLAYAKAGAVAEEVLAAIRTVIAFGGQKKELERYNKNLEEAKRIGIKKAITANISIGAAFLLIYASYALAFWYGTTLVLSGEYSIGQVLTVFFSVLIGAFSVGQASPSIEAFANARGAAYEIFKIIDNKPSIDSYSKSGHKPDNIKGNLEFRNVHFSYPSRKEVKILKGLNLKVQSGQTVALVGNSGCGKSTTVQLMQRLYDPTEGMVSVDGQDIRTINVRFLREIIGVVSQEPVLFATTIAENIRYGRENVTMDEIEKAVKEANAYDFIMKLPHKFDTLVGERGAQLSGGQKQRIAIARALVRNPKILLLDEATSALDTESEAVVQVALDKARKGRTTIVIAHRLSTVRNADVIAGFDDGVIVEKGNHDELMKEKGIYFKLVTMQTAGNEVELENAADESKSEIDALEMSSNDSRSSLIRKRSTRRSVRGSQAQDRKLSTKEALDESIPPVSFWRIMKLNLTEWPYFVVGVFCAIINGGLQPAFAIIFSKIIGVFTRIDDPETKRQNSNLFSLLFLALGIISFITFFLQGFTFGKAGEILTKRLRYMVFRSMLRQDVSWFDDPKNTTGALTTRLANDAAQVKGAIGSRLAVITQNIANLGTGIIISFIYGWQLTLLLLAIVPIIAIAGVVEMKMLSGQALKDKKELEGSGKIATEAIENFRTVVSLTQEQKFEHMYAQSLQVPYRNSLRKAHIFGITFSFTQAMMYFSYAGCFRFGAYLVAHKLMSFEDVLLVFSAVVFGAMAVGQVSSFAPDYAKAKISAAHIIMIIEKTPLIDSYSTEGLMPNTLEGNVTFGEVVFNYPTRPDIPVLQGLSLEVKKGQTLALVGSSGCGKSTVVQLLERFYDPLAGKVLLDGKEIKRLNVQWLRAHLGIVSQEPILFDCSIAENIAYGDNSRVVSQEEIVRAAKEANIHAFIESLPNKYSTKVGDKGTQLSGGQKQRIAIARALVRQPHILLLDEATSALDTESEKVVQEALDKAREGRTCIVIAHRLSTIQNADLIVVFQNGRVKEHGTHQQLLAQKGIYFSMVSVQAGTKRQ

For the substance GARLIC, the Activity result was “substrate [+]”.
